Like-named read-outs stand apart in the source and are kept apart here.

The target of one assay is T1, AKT1 E17K (Homo sapiens, UniProt P31749, E17K).
T1 construct: expressed in transfected cells; host or cells: HEK293
Put plainly: Live cell target engagement by NanoBRET competitive probe displacement, AKT1 E17K. The following applies: transfected HEK293 cells, 2 h at 37° C., read-out: AKT1 E17K IC50: GeoMean IC50. The class given is binding. The method, then: (§1) Determining live cell AKT1 E17K, AKT1 WT, and AKT2 target engagement by NanoBRET competitive probe displacement. Live cell target engagement assays were performed as described (Vasta, J. D. et al. Cell Chem Biol 2018, 25(11), 206-214). Briefly, HEK293 cells were transfected with plasmids encoding kinase-NanoLuciferase fusion proteins overnight. Cells were then treated with serial dilutions of compound and an ˜EC50 concentration of fluorescently-tagged ATP-competitive tracer (Promega). After incubation for 2 h at 37° C., luciferase substrate and extracellular luciferase inhibitor were added to all wells, and luminescent intensity at 460 nm and 600 nm were measured on a multimode plate-reader. The ratio of E600/E460 was calculated to give the tracer engagement signal (BRET). IC50 values were calculated by fitting BRET values to a log(inhibitor) vs. response Hill equation.
On the technique in general: In BRET a luciferase serves as donor, and the signal depends on an acceptor being close.

The next assay concerns the target T2, AKT1 WT (Homo sapiens, UniProt P31749).
T2 construct: expressed in transfected cells; host or cells: HEK293
Put plainly: Live cell target engagement by NanoBRET competitive probe displacement, AKT1 WT. The assay is classed as binding. The following applies: transfected HEK293 cells, 2 h at 37° C., read-out: AKT1 WT IC50: GeoMean IC50. The method, then: as §1

The test system of assay [1] is LAPC4 prostate cancer cells, which express the AKT1 E17K allele. Put plainly: Antiproliferative effects in LAPC4 cells (CellTiter Glo, 72 h). The assay is classed as cell-based. The following applies: read-out: LAPC4 proliferation IC50: GeoMean IC50. The method, then:
Antiproliferative effects in LAPC4 cells. LAPC4 prostate cancer cells (Klein, K. A. et al. Nat Med 1997, 3, 402-408), which express the AKT1 E17K allele, were grown in IMDM media (Hyclone) supplemented with 12% FBS+1% P/S. To assess compound effects on growth, 1,000 cells/well were seeded in 384 well assay plates, incubated with compound dilutions dissolved in DMSO. After 72 h, intracellular ATP content was assessed with CellTiter Glo reagent (Promega) according to the manufacturer's instructions. IC50 values were calculated by fitting luminescence values to a log(inhibitor) vs. response Hill equation.
(In ATP-based viability assays light output follows the ATP content of the culture.)

The target in another assay is T3, AKT2 (Homo sapiens, UniProt P31751).
T3 construct: expressed in transfected cells; host or cells: HEK293
T3 sequence (P31751 whole entry): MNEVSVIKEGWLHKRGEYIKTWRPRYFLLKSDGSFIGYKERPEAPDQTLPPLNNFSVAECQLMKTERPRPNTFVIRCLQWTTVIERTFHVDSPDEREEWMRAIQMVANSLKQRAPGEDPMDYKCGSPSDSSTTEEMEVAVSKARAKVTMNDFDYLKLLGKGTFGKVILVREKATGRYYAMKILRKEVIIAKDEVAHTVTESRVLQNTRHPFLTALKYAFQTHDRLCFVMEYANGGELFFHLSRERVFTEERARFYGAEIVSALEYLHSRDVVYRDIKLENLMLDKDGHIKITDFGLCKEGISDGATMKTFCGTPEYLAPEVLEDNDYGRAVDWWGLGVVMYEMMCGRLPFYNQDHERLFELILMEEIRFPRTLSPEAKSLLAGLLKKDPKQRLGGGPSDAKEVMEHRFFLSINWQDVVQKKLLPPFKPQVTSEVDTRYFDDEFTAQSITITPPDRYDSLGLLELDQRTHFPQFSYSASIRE
Put plainly: Live cell target engagement by NanoBRET competitive probe displacement, AKT2. The assay is classed as binding. The following applies: transfected HEK293 cells, 2 h at 37° C., read-out: AKT2 IC50: GeoMean IC50. The method, then: as §1

T1 sequence (P31749 whole entry E17K): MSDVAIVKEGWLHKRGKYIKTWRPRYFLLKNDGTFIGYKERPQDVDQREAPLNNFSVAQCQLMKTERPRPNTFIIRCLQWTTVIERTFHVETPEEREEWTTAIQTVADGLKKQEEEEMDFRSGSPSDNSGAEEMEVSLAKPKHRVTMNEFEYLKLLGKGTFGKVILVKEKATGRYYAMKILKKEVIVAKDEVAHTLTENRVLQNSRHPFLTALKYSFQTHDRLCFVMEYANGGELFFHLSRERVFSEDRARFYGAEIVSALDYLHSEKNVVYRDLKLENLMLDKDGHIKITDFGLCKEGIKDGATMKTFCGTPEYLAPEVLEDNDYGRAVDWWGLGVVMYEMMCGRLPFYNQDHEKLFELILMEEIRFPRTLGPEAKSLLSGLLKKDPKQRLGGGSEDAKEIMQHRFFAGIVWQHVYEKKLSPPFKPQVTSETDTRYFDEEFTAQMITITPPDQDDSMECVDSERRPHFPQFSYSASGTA
T2 sequence (P31749 whole entry): as the sequence (P31749 whole entry E17K) above, with K17E counted along it

On to `Nc1ncccc1-c1nc2ccc(-n3cccn3)nc2n1-c1ccc2c(c1)C(O)C[C@@H]2NC(=O)c1ccc(O)c(C=O)c1` (single isomer, unassigned) [Example 98], for which the IC50 at AKT1 E17K is 10 to 100 nM; on AKT1 WT, 10 to 100 nM; in assay [1] (Homo sapiens, LAPC4, 72 h), 100 to 2000 nM; on AKT2 it was 100 to 2000 nM.
`Nc1ncccc1-c1nc2ccc(-n3cccn3)nc2n1-c1ccc2c(c1)[C@@H](O)C[C@@H]2NC(=O)c1ccc(O)c(C=O)c1` (single isomer, unassigned) [Example 99]: the IC50 was in the range of 100 to 2000 nM on AKT1 E17K; 100 to 2000 nM at AKT1 WT; 100 to 2000 nM in assay [1] (Homo sapiens, LAPC4, 72 h); 100 to 2000 nM at AKT2.
In the case of `Nc1ncccc1-c1nc2ccc(-n3cccn3)nc2n1-c1ccc2c(c1)CC(F)[C@@H]2NC(=O)c1ccc(O)c(C=O)c1` (single isomer, unassigned) [Example 256, N-[(1R,2R*)-5-[2-(2-aminopyridin-3-yl)-5-(pyrazol-1-yl)imidazo[4,5-b]pyridin-3-yl]-2-fluoro-2,3-dihydro-1H-inden-1-yl]-3-formyl-4-hydroxybenzamide], the IC50 was 10 to 100 nM on AKT1 E17K, 10 to 100 nM at AKT1 WT, 10 to 100 nM in assay [1] and 100 to 2000 nM on AKT2.
`Nc1ncccc1-c1nc2ccc(-n3cccn3)nc2n1-c1ccc2c(c1)CC(F)[C@@H]2NC(=O)c1ccc(O)c(C=O)c1` (single isomer, unassigned) [Example 257, N-[(1R,2S*)-5-[2-(2-aminopyridin-3-yl)-5-(pyrazol-1-yl)imidazo[4,5-b]pyridin-3-yl]-2-fluoro-2,3-dihydro-1H-inden-1-yl]-3-formyl-4-hydroxybenzamide]: the IC50 on AKT1 E17K fell in the range of 10 to 100 nM; at AKT1 WT, 10 to 100 nM; in assay [1] it was 100 to 2000 nM; at AKT2, 100 to 2000 nM.
On to `Nc1ncccc1-c1nc2ccc(-n3cccn3)nc2n1-c1ccc2c(c1)CC(F)[C@@H]2NC(=O)c1cc(C=O)c(O)cc1F` (single isomer, unassigned) [Example 258, N-((1R,2R*)-5-(2-(2-aminopyridin-3-yl)-5-(1H-pyrazol-1-yl)-3H-imidazo[4,5-b]pyridin-3-yl)-2-fluoro-2,3-dihydro-1H-inden-1-yl)-2-fluoro-5-formyl-4-hydroxybenzamide], for which the IC50 is less than 10 nM at AKT1 E17K; 10 to 100 nM at AKT1 WT; 10 to 100 nM in assay [1] (Homo sapiens, LAPC4, 72 h); 10 to 100 nM on AKT2.
Take `Nc1ncccc1-c1nc2ccc(-c3ccccc3)nc2n1-c1ccc2c(c1)CCC2NCCc1ccc(C=O)c(O)c1` (centres unmarked) [Example 1, 4-(2-((5-(2-(2-aminopyridin-3-yl)-5-phenyl-3H-imidazo[4,5-b]pyridin-3-yl)-2,3-dihydro-1H-inden-1-yl)amino)ethyl)-2-hydroxybenzaldehyde]: the IC50 at AKT1 E17K lay within 10 to 100 nM; on AKT1 WT it was 100 to 2000 nM; at AKT2, 100 to 2000 nM.
On to `Nc1ncccc1-c1nc2ccc(-c3ccccc3)nc2n1-c1ccc2c(c1)CCC2NCCc1ccc(O)c(C=O)c1` (centres unmarked) [Example 2, 5-(2-((5-(2-(2-aminopyridin-3-yl)-5-phenyl-3H-imidazo[4,5-b]pyridin-3-yl)-2,3-dihydro-1H-inden-1-yl)amino)ethyl)-2-hydroxybenzaldehyde], for which the IC50 on AKT1 E17K is 100 to 2000 nM; at AKT1 WT, no less than 2000 nM; on AKT2, no less than 2000 nM.
Turning to `Nc1ncccc1-c1nc2ccc(-c3ccccc3)nc2n1-c1ccc2c(c1)CC[C@H]2NCCc1ccc(C=O)c(O)c1` [Example 3, 4-(2-{[(1R)-5-[2-(2-aminopyridin-3-yl)-5-phenylimidazo[4,5-b]pyridin-3-yl]-2,3-dihydro-1H-inden-1-yl]amino}ethyl)-2-hydroxybenzaldehyde], the IC50 at AKT1 E17K is 10 to 100 nM; on AKT1 WT, 100 to 2000 nM; at AKT2, no less than 2000 nM.
With `Nc1ncccc1-c1nc2ccc(-c3ccccc3)nc2n1-c1ccc2c(c1)CC[C@@H]2NCCc1ccc(C=O)c(O)c1` [Example 4, 4-(2-{[(1S)-5-[2-(2-aminopyridin-3-yl)-5-phenylimidazo[4,5-b]pyridin-3-yl]-2,3-dihydro-1H-inden-1-yl]amino}ethyl)-2-hydroxybenzaldehyde], the IC50 on AKT1 E17K lay within 10 to 100 nM; at AKT1 WT it was 100 to 2000 nM; on AKT2 it was 100 to 2000 nM.
On to `Nc1ncccc1-c1nc2ccc(-c3ccccc3)nc2n1-c1ccc2c(c1)CCC2NC(=O)Cc1ccc(C=O)c(O)c1` (centres unmarked) [Example 6, N-(5-(2-(2-aminopyridin-3-yl)-5-phenyl-3H-imidazo[4,5-b]pyridin-3-yl)-2,3-dihydro-1H-inden-1-yl)-2-(4-formyl-3-hydroxyphenyl)acetamide], for which the IC50 lay in the range of 10 to 100 nM at AKT1 E17K, 10 to 100 nM at AKT1 WT and 100 to 2000 nM on AKT2.
As for `Nc1ncccc1-c1nc2ccc(-c3ccccc3)nc2n1-c1ccc2c(c1)CC[C@H]2NC(=O)c1ccc(O)c(C=O)c1` [Example 7, N-[(1R)-5-[2-(2-aminopyridin-3-yl)-5-phenylimidazo[4,5-b]pyridin-3-yl]-2,3-dihydro-1H-inden-1-yl]-3-formyl-4-hydroxybenzamide], the results for the IC50 on AKT1 E17K, at AKT1 WT and at AKT2 were 100 to 2000 nM, no less than 2000 nM and no less than 2000 nM, respectively.
As to `Nc1ncccc1-c1nc2ccc(-c3ccccc3)nc2n1-c1ccc2c(c1)CC[C@@H]2NC(=O)Cc1ccc(C=O)c(O)c1Cl` [Example 9, N-[(1S)-5-[2-(2-aminopyridin-3-yl)-5-phenylimidazo[4,5-b]pyridin-3-yl]-2,3-dihydro-1H-inden-1-yl]-2-(2-chloro-4-formyl-3-hydroxyphenyl)acetamide], the IC50 at AKT1 E17K fell in the range of 10 to 100 nM; at AKT1 WT, 10 to 100 nM; on AKT2, 100 to 2000 nM.
Take `Nc1ncccc1-c1nc2ccc(-n3cccn3)nc2n1-c1ccc2c(c1)CC[C@@H]2NC(=O)c1cc(C=O)c(F)cc1F` [Example 188, (S)—N-(5-(2-(2-aminopyridin-3-yl)-5-(1H-pyrazol-1-yl)-3H-imidazo[4,5-b]pyridin-3-yl)-2,3-dihydro-1H-inden-1-yl)-2,4-difluoro-5-formylbenzamide]: the IC50 on AKT1 E17K was 10 to 100 nM; at AKT1 WT, 10 to 100 nM; at AKT2 it was 100 to 2000 nM.
Consider `Nc1ncccc1-c1nc2ccc(-n3cccn3)nc2n1-c1ccc2c(c1)CC[C@@H]2NC(=O)c1ccc(F)c(C=O)c1` [Example 191, (S)—N-(5-(2-(2-aminopyridin-3-yl)-5-(1H-pyrazol-1-yl)-3H-imidazo[4,5-b]pyridin-3-yl)-2,3-dihydro-1H-inden-1-yl)-4-fluoro-3-formylbenzamide], for which the IC50 at AKT1 E17K, at AKT1 WT and at AKT2 was 10 to 100 nM throughout.
For `Nc1ncccc1-c1nc2ccc(-n3cccn3)nc2n1-c1ccc2c(c1)CC[C@@H]2n1cnc2c(F)c(O)c(C=O)cc2c1=O` [Example 243, 3-[(1S)-5-[2-(2-aminopyridin-3-yl)-5-(pyrazol-1-yl)imidazo[4,5-b]pyridin-3-yl]-2,3-dihydro-1H-inden-1-yl]-8-fluoro-7-hydroxy-4-oxoquinazoline-6-carbaldehyde], in assay [1] (Homo sapiens, LAPC4, 72 h), the IC50 lay in the range of 100 to 2000 nM.
On the same count and under the same terms, to `CS(=O)(=O)Nc1cc2ncn([C@H]3CCc4cc(-n5c(-c6cccnc6N)nc6ccc(-n7cccn7)nc65)ccc43)c(=O)c2cc1C=O` [Example 244, N-{3-[(1S)-5-[2-(2-aminopyridin-3-yl)-5-(pyrazol-1-yl)imidazo[4,5-b]pyridin-3-yl]-2,3-dihydro-1H-inden-1-yl]-6-formyl-4-oxoquinazolin-7-yl}methanesulfonamide] belongs 100 to 2000 nM; to `Cc1nc2cc(O)c(C=O)cc2c(=O)n1[C@H]1CCc2cc(-n3c(-c4cccnc4N)nc4ccc(-n5cccn5)nc43)ccc21` [Example 249, 3-[(1S)-5-[2-(2-aminopyridin-3-yl)-5-(pyrazol-1-yl)imidazo[4,5-b]pyridin-3-yl]-2,3-dihydro-1H-inden-1-yl]-7-hydroxy-2-methyl-4-oxoquinazoline-6-carbaldehyde], no less than 2000 nM.
With `Nc1ncccc1-c1nc2ccc(-n3cccn3)nc2n1-c1ccc2c(c1)CC(O)C2NC(=O)c1ccc(O)c(C=O)c1` (centres unmarked) [Example 251, N-(5-(2-(2-aminopyridin-3-yl)-5-(1H-pyrazol-1-yl)-3H-imidazo[4,5-b]pyridin-3-yl)-2-hydroxy-2,3-dihydro-1H-inden-1-yl)-3-formyl-4-hydroxybenzamide], the values for the IC50 on AKT1 E17K, on AKT1 WT and on AKT2 were 10 to 100 nM, 100 to 2000 nM and 100 to 2000 nM, respectively.

The record behind these values is patent US20260053834A1, “COVALENT MODIFIERS OF AKT1 AND USES THEREOF” (Terremoto Biosciences, Inc., priority 2023, published 2026).
